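Cells were grown in 96-well plates and exposed to each compound for 48 hours at five concentrations; endpoints were interpolated linearly between bracketing concentrations, or set to the highest concentration if not reached. GI50 = concentration required for 50% inhibition of growth.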 Calls of active or inactive are those of the source. No stated cut-off is given here; in the data, active = GI50 up to about 1.1 µM and inactive = higher.
Experiments:
Assay in all cases: inhibition of tumour cell growth, NCI panel, 48 h
PC-3 = tested on: PC-3
U-251 = tested on: U-251
OVCAR-8 = tested on: OVCAR-8
K562 = tested on: K562
HL-60 = tested on: HL-60
LOX IMVI = tested on: LOX IMVI
A549 = tested on: A549
COLO 205 = tested on: COLO 205
MDA-MB-435 = tested on: MDA-MB-435
Malme-3M = tested on: Malme-3M
SNB-19 = tested on: SNB-19
NCI-H23 = tested on: NCI-H23
MOLT-4 = tested on: MOLT-4
Hs-578T = tested on: Hs-578T
SK-MEL-2 = tested on: SK-MEL-2
786-0 = tested on: 786-0
SF-539 = tested on: SF-539
A498 = tested on: A498
HOP-62 = tested on: HOP-62
HCT-116 = tested on: HCT-116

| Compound | GI50 (PC-3) | GI50 (U-251) | GI50 (OVCAR-8) | GI50 (K562) | GI50 (HL-60) | GI50 (LOX IMVI) | GI50 (A549) | GI50 (COLO 205) | GI50 (MDA-MB-435) | GI50 (Malme-3M) | GI50 (SNB-19) | GI50 (NCI-H23) | GI50 (MOLT-4) | GI50 (Hs-578T) | GI50 (SK-MEL-2) | GI50 (786-0) | GI50 (SF-539) | GI50 (A498) | GI50 (HOP-62) | GI50 (HCT-116) |
| --- | --- | --- | --- | --- | --- | --- | --- | --- | --- | --- | --- | --- | --- | --- | --- | --- | --- | --- | --- | --- |
| Nc1ccc(-c2nc3ccccc3s2)cc1Cl | > 73.6 µM (inactive) | 58.2 µM (inactive) | > 100 µM (inactive) | 66.7 µM (inactive) | > 92.3 µM (inactive) | 46.8 µM (inactive) | > 87.1 µM (inactive) | > 56.2 µM (inactive) | > 100 µM (inactive) | > 100 µM (inactive) | > 70.8 µM (inactive) | 69.3 µM (inactive) | 16.3 µM (inactive) | 56 µM (inactive) | > 100 µM (inactive) | 74 µM (inactive) | 77.6 µM (inactive) | 0.223 µM (active) | 18.8 µM (inactive) | > 100 µM (inactive) |
| C=C[C@@H](C)[C@H](NS(=O)(=O)c1ccc(C)cc1)C(=O)OCC | 32.4 µM (inactive) | 33.5 µM (inactive) | 40.2 µM (inactive) | 39.7 µM (inactive) | 57 µM (inactive) | 19.7 µM (inactive) | 32 µM (inactive) | 52.2 µM (inactive) | 21.4 µM (inactive) | 39.7 µM (inactive) | 74 µM (inactive) | 39.4 µM (inactive) | 50.6 µM (inactive) | 19.7 µM (inactive) | 33.3 µM (inactive) | 40.8 µM (inactive) | > 100 µM (inactive) | 48.5 µM (inactive) | > 100 µM (inactive) | 35.5 µM (inactive) |
| CC(C)(C)COS(=O)OCC(C)(C)C | > 100 µM (inactive) | > 100 µM (inactive) | > 100 µM (inactive) | > 100 µM (inactive) | > 100 µM (inactive) | > 100 µM (inactive) | > 100 µM (inactive) | > 100 µM (inactive) | > 100 µM (inactive) | > 100 µM (inactive) | > 100 µM (inactive) | > 100 µM (inactive) | > 100 µM (inactive) | > 100 µM (inactive) | > 100 µM (inactive) | > 100 µM (inactive) | > 100 µM (inactive) | > 100 µM (inactive) | > 100 µM (inactive) | > 100 µM (inactive) |
| CC(C)(C)c1nc2c(o1)C(=O)c1ccccc1C2=O | 0.505 µM (active) | 1.72 µM (inactive) | 0.92 µM (active) | 0.834 µM (active) | 0.718 µM (active) | 0.394 µM (active) | 3.53 µM (inactive) | 4.81 µM (inactive) | 0.185 µM (active) | 0.574 µM (active) | 5.19 µM (inactive) | 0.373 µM (active) | 1.76 µM (inactive) | 0.927 µM (active) | 0.592 µM (active) | 2.75 µM (inactive) | 1.12 µM (inactive) | 6.21 µM (inactive) | 3.37 µM (inactive) | 0.838 µM (active) |
| CCOC(=O)CCC(NC(=O)c1ccc(Oc2nc3ccc(C(F)(F)F)cc3nc2-c2ccccc2)cc1)C(=O)OCC (stereo not given) | > 58.3 µM (inactive) | 20.4 µM (inactive) | 9.06 µM (inactive) | > 100 µM (inactive) | > 100 µM (inactive) | 28.6 µM (inactive) | 24.2 µM (inactive) | > 100 µM (inactive) | > 100 µM (inactive) | 14.2 µM (inactive) | 12.7 µM (inactive) | 16.8 µM (inactive) | > 100 µM (inactive) | 3.33 µM (inactive) | 22.8 µM (inactive) | 4.25 µM (inactive) | 3.01 µM (inactive) | 16.4 µM (inactive) | 4.82 µM (inactive) | 25.6 µM (inactive) |
| CC(=O)NC(CS)C(=O)O (stereo not given) | 33200 µM (inactive) | 19300 µM (inactive) | 24700 µM (inactive) | 21700 µM (inactive) | 34200 µM (inactive) | > 100 µM (inactive) | 15700 µM (inactive) | 14600 µM (inactive) | 17800 µM (inactive) | 8220 µM (inactive) | 16400 µM (inactive) | 20200 µM (inactive) | 16400 µM (inactive) | 18700 µM (inactive) | 18500 µM (inactive) | 21600 µM (inactive) | 26100 µM (inactive) | 3970 µM (inactive) | 12800 µM (inactive) | 17600 µM (inactive) |
| CN(C)/C=N/c1ccc2[nH]c3ccccc3c2c1 | 36.1 µM (inactive) | 28.8 µM (inactive) | 37.7 µM (inactive) | 20.4 µM (inactive) | 18.1 µM (inactive) | 15.7 µM (inactive) | 39.7 µM (inactive) | 16.6 µM (inactive) | 18 µM (inactive) | 22.1 µM (inactive) | > 100 µM (inactive) | 49.3 µM (inactive) | 27.3 µM (inactive) | 38.5 µM (inactive) | 16.7 µM (inactive) | 25.1 µM (inactive) | 20.8 µM (inactive) | 20.9 µM (inactive) | 23.2 µM (inactive) | 34.6 µM (inactive) |
| CCN(CC)CCOC(=O)Cc1cccc2c(=O)cc(-c3ccccc3)oc12 | 49.3 µM (inactive) | 50.2 µM (inactive) | 51.4 µM (inactive) | 40.3 µM (inactive) | 36.3 µM (inactive) | 29.6 µM (inactive) | 6.62 µM (inactive) | 38.4 µM (inactive) | 55.1 µM (inactive) | 39.3 µM (inactive) | 56.1 µM (inactive) | 45.8 µM (inactive) | 42.9 µM (inactive) | 28.3 µM (inactive) | > 150 µM (inactive) | 55.1 µM (inactive) | 44.1 µM (inactive) | 54.3 µM (inactive) | 46.8 µM (inactive) | 48.3 µM (inactive) |
| Nc1ccc(Sc2c3ccccc3nc3ccccc23)cc1 | 13.1 µM (inactive) | 15.2 µM (inactive) | 13.8 µM (inactive) | 2.65 µM (inactive) | 2.96 µM (inactive) | 5.62 µM (inactive) | 33.3 µM (inactive) | 11.5 µM (inactive) | 17.2 µM (inactive) | 19.7 µM (inactive) | 22.1 µM (inactive) | 17.7 µM (inactive) | 3.02 µM (inactive) | 25.6 µM (inactive) | 16.9 µM (inactive) | 5.48 µM (inactive) | 15.6 µM (inactive) | 68.5 µM (inactive) | 29.7 µM (inactive) | 10.8 µM (inactive) |
| COC(=O)[C@H]1[C@H](C(=O)OC)[C@@H](C)c2c(ccc3c2[nH]c2ccccc23)[C@@H]1C | 37.4 µM (inactive) | 62.1 µM (inactive) | 46.3 µM (inactive) | 0.9 µM (active) | 5.81 µM (inactive) | 22.6 µM (inactive) | 31.1 µM (inactive) | 66.7 µM (inactive) | > 100 µM (inactive) | 49.8 µM (inactive) | 56.4 µM (inactive) | 41.2 µM (inactive) | 0.3 µM (active) | 31.1 µM (inactive) | 34.1 µM (inactive) | 21.2 µM (inactive) | > 100 µM (inactive) | > 100 µM (inactive) | 35.6 µM (inactive) | 34.6 µM (inactive) |
| Cc1[nH]n(-c2nc3c(c(=O)[nH]2)CCC3)c(=O)c1CCO | > 100 µM (inactive) | > 100 µM (inactive) | > 100 µM (inactive) | > 100 µM (inactive) | > 100 µM (inactive) | > 100 µM (inactive) | > 100 µM (inactive) | > 100 µM (inactive) | > 100 µM (inactive) | > 100 µM (inactive) | > 100 µM (inactive) | > 100 µM (inactive) | > 100 µM (inactive) | > 100 µM (inactive) | > 100 µM (inactive) | > 100 µM (inactive) | > 100 µM (inactive) | > 100 µM (inactive) | > 100 µM (inactive) | > 100 µM (inactive) |
| O=C(NC(=O)c1c(F)cccc1F)Nc1cccc(Oc2ncc(Cl)cn2)c1 | > 100 µM (inactive) | 33.2 µM (inactive) | 43 µM (inactive) | 3.1 µM (inactive) | 3.51 µM (inactive) | 29.3 µM (inactive) | > 39.9 µM (inactive) | 3.85 µM (inactive) | 1.63 µM (inactive) | > 68.4 µM (inactive) | 45.5 µM (inactive) | > 100 µM (inactive) | > 80.5 µM (inactive) | 35.2 µM (inactive) | > 51.6 µM (inactive) | 40 µM (inactive) | 23.3 µM (inactive) | > 76.6 µM (inactive) | 29.6 µM (inactive) | 8.79 µM (inactive) |
| O=c1[nH]nc(-c2cccc([N+](=O)[O-])c2)[nH]1 | > 100 µM (inactive) | > 100 µM (inactive) | > 100 µM (inactive) | > 100 µM (inactive) | > 100 µM (inactive) | > 100 µM (inactive) | > 100 µM (inactive) | > 100 µM (inactive) | > 100 µM (inactive) | > 100 µM (inactive) | > 100 µM (inactive) | > 100 µM (inactive) | > 100 µM (inactive) | 47.3 µM (inactive) | > 100 µM (inactive) | > 100 µM (inactive) | > 100 µM (inactive) | > 100 µM (inactive) | > 100 µM (inactive) | > 100 µM (inactive) |
| COC(=O)C1=C(C)NC2=C(C(=O)c3ccccc32)C1c1cn(-c2ccccc2)nc1-c1ccccc1 (stereo not given) | 4.36 µM (inactive) | 15.5 µM (inactive) | > 100 µM (inactive) | 16.3 µM (inactive) | 23.2 µM (inactive) | 37.4 µM (inactive) | 12 µM (inactive) | > 100 µM (inactive) | 16.6 µM (inactive) | > 84.7 µM (inactive) | > 48.1 µM (inactive) | 20.7 µM (inactive) | 2.96 µM (inactive) | > 100 µM (inactive) | > 59.3 µM (inactive) | > 87.1 µM (inactive) | 21.2 µM (inactive) | > 65.9 µM (inactive) | > 100 µM (inactive) | 12.1 µM (inactive) |

Source: ChEMBL document CHEMBL1201862, “PubChem BioAssay data set” (2004)
